The target in one experiment is Cbl-b (Homo sapiens (Human), UniProt Q13191). Kind of experiment: Cbl-b LCK Ub TR-FRET assay (Cbl-b Lck HTRF). In kind it is biochemical. Particulars: for (fold-selectivity): Cbl-b and C-Cbl selectivity, Lck HTRF; for IC50: read-out: Cbl-b Lck HTRF IC50. The gist of the method: (§1)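 Biotin-Cbl-b (16 nM) or biotin-c-Cbl (12 nM) at 2× preincubated with compound 60 min, then His-LCK (120 nM), 1 mM ATP and MgCl2 (2× mix) added for 90 min at RT. Buffer: HEPES pH 7.0, DTT. UBE2D2–HA-ubiquitin transfer read by TR-FRET (665/615 nm); IC50 versus no-LCK and DMSO controls, 10-point dilutions.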

The next experiment has as its target c-Cbl (Homo sapiens (Human), UniProt P22681). As to the kind of experiment: C-cbl LCK Ub TR-FRET assay (C-cbl Lck HTRF). The class given is biochemical. The gist of the method: as §1
(Time-resolved FRET reads energy transfer from a long-lived donor to a nearby acceptor.)

Each structure is given as a SMILES string.

A word on the IC50: it is the concentration that gives 50% inhibition.

Chain of Cbl-b (Q13191 40-426): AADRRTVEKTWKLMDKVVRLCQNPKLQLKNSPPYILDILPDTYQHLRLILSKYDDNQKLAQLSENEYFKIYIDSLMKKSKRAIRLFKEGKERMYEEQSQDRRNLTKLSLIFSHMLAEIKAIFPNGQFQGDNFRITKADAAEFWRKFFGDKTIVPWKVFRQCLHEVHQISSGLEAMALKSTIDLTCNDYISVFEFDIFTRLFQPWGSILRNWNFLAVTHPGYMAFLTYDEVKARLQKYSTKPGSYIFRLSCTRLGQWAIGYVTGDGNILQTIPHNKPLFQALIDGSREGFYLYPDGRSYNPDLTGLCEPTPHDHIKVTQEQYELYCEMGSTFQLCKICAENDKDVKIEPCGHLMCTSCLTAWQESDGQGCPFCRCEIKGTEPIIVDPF
Chain of c-Cbl (P22681 47-435): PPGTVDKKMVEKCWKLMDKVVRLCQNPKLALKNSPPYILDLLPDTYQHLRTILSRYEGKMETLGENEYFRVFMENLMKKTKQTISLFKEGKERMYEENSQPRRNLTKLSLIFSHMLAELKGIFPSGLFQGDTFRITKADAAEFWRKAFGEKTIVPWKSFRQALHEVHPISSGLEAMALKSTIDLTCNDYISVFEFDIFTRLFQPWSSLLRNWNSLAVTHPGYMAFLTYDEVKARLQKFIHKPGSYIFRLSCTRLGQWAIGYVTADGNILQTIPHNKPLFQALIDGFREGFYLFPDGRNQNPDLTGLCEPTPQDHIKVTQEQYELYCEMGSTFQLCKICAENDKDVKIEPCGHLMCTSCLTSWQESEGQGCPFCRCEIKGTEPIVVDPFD

For `Cn1cnnc1[C@H](F)[C@@]1(c2cccc(NC(=O)c3cccc(C(F)(F)F)n3)c2)CCO1` [Compound 501, N-(3-((S)-2-((S)-fluoro(4-methyl-4H-1,2,4-triazol-3-yl)methyl)oxetan-2-yl)phenyl)-6-(trifluoromethyl)picolinamide], on Cbl-b, the “(fold-selectivity)” value is “(1.1x)” and the IC50 turned out to be 15 µM. Besides, half-maximal inhibition against c-Cbl (IC50) was put at 17 µM.

As for `Cn1cnnc1[C@@H](F)[C@@]1(c2cccc(NC(=O)c3cccc(C(F)(F)F)n3)c2)CCO1` [Compound 502, N-(3-((S)-2-((R)-fluoro(4-methyl-4H-1,2,4-triazol-3-yl)methyl)oxetan-2-yl)phenyl)-6-(trifluoromethyl)picolinamide], on Cbl-b, the “(fold-selectivity)” value is on record as “(1.0x)” and the IC50 worked out at 20 µM. For the same molecule, the IC50 against c-Cbl is 20 µM.

For `Cn1cnnc1[C@H](F)[C@]1(c2cccc(NC(=O)c3cccc(C(F)(F)F)n3)c2)CCO1` [Compound 503, N-(3-((R)-2-((S)-fluoro(4-methyl-4H-1,2,4-triazol-3-yl)methyl)oxetan-2-yl)phenyl)-6-(trifluoromethyl)picolinamide], the “(fold-selectivity)” value on Cbl-b is reported as “(0.85x)”. Besides, the figures for the IC50 on Cbl-b and on c-Cbl were 20 µM and 17 µM, respectively.

With `Cn1cnnc1[C@@H](F)[C@]1(c2cccc(NC(=O)c3cccc(C(F)(F)F)n3)c2)CCO1` [Compound 504, N-(3-((R)-2-((R)-fluoro(4-methyl-4H-1,2,4-triazol-3-yl)methyl)oxetan-2-yl)phenyl)-6-(trifluoromethyl)picolinamide], the “(fold-selectivity)” value on Cbl-b is listed as “(0.55x)”. In addition, the IC50 came to 16 µM on Cbl-b and 8.7 µM on c-Cbl.

Turning to `Cn1cnnc1CC1(c2cccc(NC(=O)c3cc(C(CC4CC4)N4CCC5(CC5)C4)cc(C(F)(F)F)n3)c2)COC1` (stereo not drawn) [Compound 505, 4-(2-cyclopropyl-1-(5-azaspiro[2.4]heptan-5-yl)ethyl)-N-(3-(3-((4-methyl-4H-1,2,4-triazol-3-yl)methyl)oxetan-3-yl)phenyl)-6-(trifluoromethyl)picolinamide], on Cbl-b, the “(fold-selectivity)” value was “(1.5x)” and the IC50 was determined as 0.026 µM. In addition, inhibition on c-Cbl was half-maximal at 0.039 µM (IC50).

Take `Cn1cnnc1CC1(c2cccc(NC(=O)c3cc(CCO)cc(C(F)(F)F)n3)c2)COC1` [Compound 506, 4-(2-hydroxyethyl)-N-(3-(3-((4-methyl-4H-1,2,4-triazol-3-yl)methyl)oxetan-3-yl)phenyl)-6-(trifluoromethyl)picolinamide]: on Cbl-b, the “(fold-selectivity)” value is recorded as “(1.1x)” and the IC50 was 0.15 µM. The IC50 against c-Cbl came to 0.16 µM.

As to `Cn1cnnc1CC1(c2cccc(NC(=O)c3cc(CC(N)=O)cc(C(F)(F)F)n3)c2)COC1` [Compound 507, 4-(2-amino-2-oxoethyl)-N-(3-(3-((4-methyl-4H-1,2,4-triazol-3-yl)methyl)oxetan-3-yl)phenyl)-6-(trifluoromethyl)picolinamide], the “(fold-selectivity)” value on Cbl-b was “(0.89x)”. The IC50 at Cbl-b was determined as 0.1 µM; on c-Cbl, 0.089 µM.

These data come from patent US20240300927A1, “AMIDES AS CBL-B INHIBITORS” (Genentech, Inc., priority 2021, published 2024).
